Experimental data as given in US9102701B2, “17-hydroxy-17-pentafluoroethyl-estra-4,9(10)-diene-11-ethynylphenyl derivatives, methods for the production thereof and use thereof for treating diseases” (Bayer Intellectual Property GmbH, priority 2009, dated 2015).

Legend:
[1] = biological target: T1, human progesterone receptor B (Homo sapiens, UniProt P06401); assay: Progesterone receptor-antagonistic action in stably transfected SK-N-MC cells, PR-B, MMTV-LUC reporter; format: cell-based; conditions: read-out: IC50 PR-B
T1 construct: expressed in transfected cells; host or cells: SK-N-MC human neuroblastoma cells, stably transfected with pRChPR-B-neo and pMMTV-LUC
T1 sequence (P06401 1-933): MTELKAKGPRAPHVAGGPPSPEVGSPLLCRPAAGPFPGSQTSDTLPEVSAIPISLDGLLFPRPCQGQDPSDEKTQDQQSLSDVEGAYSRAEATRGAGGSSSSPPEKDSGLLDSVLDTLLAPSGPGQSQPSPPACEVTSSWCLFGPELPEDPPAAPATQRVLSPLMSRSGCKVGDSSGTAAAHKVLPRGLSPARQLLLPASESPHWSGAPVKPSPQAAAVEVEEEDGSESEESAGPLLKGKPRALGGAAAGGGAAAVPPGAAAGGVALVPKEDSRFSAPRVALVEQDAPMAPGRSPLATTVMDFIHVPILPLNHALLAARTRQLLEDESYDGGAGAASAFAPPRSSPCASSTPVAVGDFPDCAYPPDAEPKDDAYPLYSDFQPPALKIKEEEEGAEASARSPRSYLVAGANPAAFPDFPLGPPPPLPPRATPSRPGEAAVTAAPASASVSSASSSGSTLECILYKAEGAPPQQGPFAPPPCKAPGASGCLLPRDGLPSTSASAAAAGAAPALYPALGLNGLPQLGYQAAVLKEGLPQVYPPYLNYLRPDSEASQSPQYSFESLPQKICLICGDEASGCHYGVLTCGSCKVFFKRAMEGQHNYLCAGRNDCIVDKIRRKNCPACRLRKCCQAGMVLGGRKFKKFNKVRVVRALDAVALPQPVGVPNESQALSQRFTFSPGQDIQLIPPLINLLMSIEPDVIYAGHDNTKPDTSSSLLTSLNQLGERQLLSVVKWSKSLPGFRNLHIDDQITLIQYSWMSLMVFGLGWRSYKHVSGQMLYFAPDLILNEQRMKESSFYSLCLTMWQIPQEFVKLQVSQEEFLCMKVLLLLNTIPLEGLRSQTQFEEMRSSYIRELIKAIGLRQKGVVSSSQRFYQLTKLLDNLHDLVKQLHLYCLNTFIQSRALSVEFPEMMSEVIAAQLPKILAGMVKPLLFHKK
Protocol: (§1) Determination of Progesterone Receptor-Antagonistic Action in Stable Transfectants of Human Neuroblastoma Cells (SK-N-MC Cells) with the Human Progesterone a or Progesterone B Receptor and an MN-LUC Reporter Construct
(§2) SK-N-MC cells (human neuroblastoma cells) which have been stably transfected with plasmids expressing the human progesterone receptor B (pRChPR-B-neo) or the human progesterone receptor A (pRChPR-A-neo) and a reporter construct (pMMTV-LUC) were incubated for 24 hours either in the absence (negative control) or in the presence of ascending amounts of the particular test compound (0.01 nmol/l, 0.1 nmol/l, 1 nmol/l, 10 nmol/l, 100 nmol/l and […]), in order to determine the agonistic efficacy. As a positive control of the reporter gene induction, the cells were treated with the synthetic gestagen promegestone (0.01 nmol/l, 0.1 nmol/l, 1 nmol/l, 10 nmol/l, 100 nmol/l and […]). To determine the antagonistic activity, the cells were treated with 0.1 nmol/l promegestone and additionally with ascending amounts of the particular test compound (0.01 nmol/l, 0.1 nmol/l, 1 nmol/l, 10 nmol/l, 100 nmol/l and […]). The activity of the reporter gene LUC (LUC=luciferase) was determined in the cell lysates and measured as RLU (relative light units). All measurements are reported as % efficacy and as EC50 and IC50 concentrations.

[2] = biological target: T2, human progesterone receptor A (Homo sapiens, UniProt P06401); assay: Progesterone receptor-antagonistic action in stably transfected SK-N-MC cells, PR-A, MMTV-LUC reporter; format: cell-based; conditions: read-out: IC50 PR-A
T2 construct: expressed in transfected cells; host or cells: SK-N-MC human neuroblastoma cells, stably transfected with pRChPR-A-neo and pMMTV-LUC
T2 sequence (P06401 1-769 isoform P06401-2): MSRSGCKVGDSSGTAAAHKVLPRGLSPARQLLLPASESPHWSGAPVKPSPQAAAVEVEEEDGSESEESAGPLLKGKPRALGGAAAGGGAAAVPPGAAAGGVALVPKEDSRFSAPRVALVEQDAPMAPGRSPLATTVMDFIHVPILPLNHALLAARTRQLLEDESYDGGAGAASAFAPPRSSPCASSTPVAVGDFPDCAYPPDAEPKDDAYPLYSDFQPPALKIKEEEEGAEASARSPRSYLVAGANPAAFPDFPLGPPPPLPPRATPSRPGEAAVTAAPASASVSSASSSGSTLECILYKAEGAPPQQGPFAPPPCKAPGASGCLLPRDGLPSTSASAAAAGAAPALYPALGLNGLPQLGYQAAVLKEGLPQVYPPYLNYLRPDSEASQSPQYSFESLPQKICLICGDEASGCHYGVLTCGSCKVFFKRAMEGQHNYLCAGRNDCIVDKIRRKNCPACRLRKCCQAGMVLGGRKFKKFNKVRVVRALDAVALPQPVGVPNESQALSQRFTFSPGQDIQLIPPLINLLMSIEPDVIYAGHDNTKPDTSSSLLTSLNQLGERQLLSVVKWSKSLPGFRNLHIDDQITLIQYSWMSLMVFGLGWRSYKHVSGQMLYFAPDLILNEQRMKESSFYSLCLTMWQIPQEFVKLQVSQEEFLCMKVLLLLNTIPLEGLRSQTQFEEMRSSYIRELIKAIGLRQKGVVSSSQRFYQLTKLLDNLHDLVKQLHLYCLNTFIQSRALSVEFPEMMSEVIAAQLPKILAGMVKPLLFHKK
Protocol: as §1, §2

IC50 [1]	IC50 [2]	Compound
10 nM	8.1 nM	COC(=O)COCC#Cc1ccc([C@H]2C[C@@]3(C)[C@@H](CC[C@@]3(O)C(F)(F)C(F)(F)F)[C@@H]3CCC4=CC(=O)CCC4=C32)cc1 [Example 9, {3-[4-((8S,11R,13S,14S,17S)-17-hydroxy-13-methyl-3-oxo-17-pentafluoroethyl-2,3,6,7,8,11,12,13,14,15,16,17-dodecahydro-1H-cyclopenta[a]phenanthren-11-yl)phenyl]prop-2-ynyloxy}acetic acid methyl ester]
10 nM	9 nM	C[C@]12C[C@H](c3ccc(C#CCOCC(=O)O)cc3)C3=C4CCC(=O)C=C4CCC3C1CC[C@@]2(O)C(F)(F)C(F)(F)F (stereo partly drawn) [Example 10, {3-[4-((8S,11R,13S,14S,17S)-17-hydroxy-13-methyl-3-oxo-17-pentafluoroethyl-2,3,6,7,8,11,12,13,14,15,16,17-dodecahydro-1H-cyclopenta[a]phenanthren-1′-yl)phenyl]prop-2-ynyloxy}acetic acid]
0.1 nM	0.1 nM	C[C@]12C[C@H](c3ccc(C#CCOCC#N)cc3)C3=C4CCC(=O)C=C4CCC3C1CC[C@@]2(O)C(F)(F)C(F)(F)F (stereo partly drawn) [Example 14, {3-[4-((8S,11R,13S,14S,17S)-17-hydroxy-13-methyl-3-oxo-17-pentafluoroethyl-2,3,6,7,8,11,12,13,14,15,16,17-dodecahydro-1H-cyclopenta[a]phenanthren-1′-yl)phenyl]prop-2-ynyloxy}acetonitrile]
1 nM	0.7 nM	COC(=O)c1ccc(C#Cc2ccc([C@H]3C[C@@]4(C)[C@@H](CC[C@@]4(O)C(F)(F)C(F)(F)F)[C@@H]4CCC5=CC(=O)CCC5=C43)cc2)cc1 [Example 15, 4-[4-((8S,11R,13S,14S,17S)-17-hydroxy-13-methyl-3-oxo-17-pentafluoroethyl-2,3,6,7,8,11,12,13,14,15,16,17-dodecahydro-1H-cyclopenta[a]phenanthren-11-yl)phenylethynyl]benzoic acid methyl ester]
5 nM	8 nM	C[C@]12C[C@H](c3ccc(C#CCOCc4nnn[nH]4)cc3)C3=C4CCC(=O)C=C4CC[C@H]3[C@@H]1CC[C@@]2(O)C(F)(F)C(F)(F)F [Example 18, (8S,11R,13S,14S,17S)-17-hydroxy-13-methyl-17-pentafluoroethyl-11-{4-[3-(1H-tetrazol-5-ylmethoxy)prop-1-yn-1-yl]phenyl}-1,2,6,7,8,11,12,13,14,15,16,17-dodecahydrocyclopenta[a]phenanthren-3-one]
1 nM	0.36 nM	CC(C)(O)C#Cc1ccc([C@H]2C[C@@]3(C)[C@@H](CC[C@@]3(O)C(F)(F)C(F)(F)F)[C@@H]3CCC4=CC(=O)CCC4=C32)cc1 [Example 21, (8S,11R,13S,14S,17S)-17-hydroxy-11-[4-(3-hydroxy-3-methylbut-1-ynyl)phenyl]-13-methyl-17-pentafluoroethyl-1,2,6,7,8,11,12,13,14,15,16,17-dodecahydrocyclopenta[a]phenanthren-3-one]
0.014 nM	0.014 nM	C#Cc1ccc([C@H]2C[C@@]3(C)C(CC[C@@]3(O)C(F)(F)C(F)(F)F)C3CCC4=CC(=O)CCC4=C32)cc1 (stereo partly drawn) [Example 22, (8S,11R,13S,14S,17S)-1′-(4-ethynylphenyl)-17-hydroxy-13-methyl-17-pentafluoroethyl-1,2,6,7,8,11,12,13,14,15,16,17-dodecahydrocyclopenta[a]phenanthren-3-one]
0.3 nM	0.2 nM	C[C@]12C[C@H](c3ccc(C#CCN=[N+]=[N-])cc3)C3=C4CCC(=O)C=C4CC[C@H]3[C@@H]1CC[C@@]2(O)C(F)(F)C(F)(F)F [Example 23, (8S,11R,13S,14S,17S)-11-[4-(3-azidoprop-1-yn-1-yl)phenyl]-17-hydroxy-13-methyl-17-pentafluoroethyl-1,2,6,7,8,11,12,13,14,15,16,17-dodecahydrocyclopenta[a]phenanthren-3-one]
0.1 nM	0.1 nM	C[C@]12C[C@H](c3ccc(C#C/C=N\OCc4ccccc4)cc3)C3=C4CCC(=O)C=C4CCC3C1CC[C@@]2(O)C(F)(F)C(F)(F)F (stereo partly drawn) [Example 24B, (Z)-[4-((8S,11R,13S,14S,17S)-17-hydroxy-13-methyl-3-oxo-17-pentafluoroethyl-2,3,6,7,8,11,12,13,14,15,16,17-dodecahydro-1H-cyclopenta[a]phenanthren-1′-yl)phenyl]propynal O-benzyl oxime]
0.09 nM	0.09 nM	CCO/N=C\C#Cc1ccc([C@H]2C[C@@]3(C)C(CC[C@@]3(O)C(F)(F)C(F)(F)F)C3CCC4=CC(=O)CCC4=C32)cc1 (stereo partly drawn) [Example 25B, (Z)-[4-((8S,11R,13S,14S,17S)-17-hydroxy-13-methyl-3-oxo-17-pentafluoroethyl-2,3,6,7,8,11,12,13,14,15,16,17-dodecahydro-1H-cyclopenta[a]phenanthren-1′-yl)phenyl]propynal O-ethyl oxime]
0.08 nM	0.04 nM	Cc1noc(C)c1NC(=O)NCC#Cc1ccc([C@H]2C[C@@]3(C)C(CC[C@@]3(O)C(F)(F)C(F)(F)F)C3CCC4=CC(=O)CCC4=C32)cc1 (stereo partly drawn) [Example 28, 1-(3,5-dimethylisoxazol-4-yl)-3-{3-[4-((8S,11R,13S,14S,17S)-17-hydroxy-13-methyl-3-oxo-17-pentafluoroethyl-2,3,6,7,8,11,12,13,14,15,16,17-dodecahydro-1H-cyclopenta[a]phenanthren-1′-yl)phenyl]prop-2-ynyl}urea]
0.1 nM	0.1 nM	CC(C)NC(=O)NCC#Cc1ccc([C@H]2C[C@@]3(C)[C@@H](CC[C@@]3(O)C(F)(F)C(F)(F)F)[C@@H]3CCC4=CC(=O)CCC4=C32)cc1 [Example 29, 1-{3-[4-((8S,11R,13S,14S,17S)-17-hydroxy-13-methyl-3-oxo-17-pentafluoroethyl-2,3,6,7,8,11,12,13,14,15,16,17-dodecahydro-1H-cyclopenta[a]phenanthren-11-yl)phenyl]prop-2-ynyl}-3-isopropylurea]
0.4 nM	0.1 nM	CCOC(=O)CCNC(=O)NCC#Cc1ccc([C@H]2C[C@@]3(C)C(CC[C@@]3(O)C(F)(F)C(F)(F)F)C3CCC4=CC(=O)CCC4=C32)cc1 (stereo partly drawn) [Example 30, 3-(3-{3-[4-((8S,11R,13S,14S,17S)-17-hydroxy-13-methyl-3-oxo-17-pentafluoroethyl-2,3,6,7,8,11,12,13,14,15,16,17-dodecahydro-1H-cyclopenta[a]phenanthren-1′-yl)phenyl]prop-2-ynyl}ureido)propionic acid ethyl ester]
